These are literature values, as cited in patent US7807599B2, “Hydroconversion processes employing multi-metallic catalysts and method for making thereof” (Chevron U. S. A. Inc., priority 2007, dated 2010).

By LD50 is commonly meant the dose expected to kill half of the subjects tested.

The data set relates to rats. The settings on record: as single oral dose to rats.

For `O=CC(=O)O` [glyoxylic], the LD50 is listed as 3000 mg/kg.
